The text below walks through data of ChEMBL document CHEMBL1159182, “SAR of cocaine: further exploration of structural variations at the C-2 center provides compounds of subnanomolar binding potency” (Bioorg Med Chem Lett, 1993).

Experiment [1] concerns the target T1, Sodium-dependent dopamine transporter (Homo sapiens, UniProt Q01959). Put plainly: Inhibitory concentration against [3H]dopamine uptake. It is filed as functional.
The target of experiment [2] is T1, Sodium-dependent dopamine transporter. Put plainly: Displacement of [3H]mazindol from dopamine transporter.
Experiment [3] has the same target. As to the kind of experiment: Ability to displace [3H]-Mazindol from dopamine receptor.
The target is the same in experiment [4]. As to the kind of experiment: Inhibitory concentration required for [3H]dopamine uptake; not being isolated. It is filed as functional.
Experiment [5] has the same target. Put plainly: Ability to displace [3H]mazindol to dopamine receptor; not being isolated.
For experiment [6] the target is unchanged. Put plainly: Ability to displace [3H]mazindol from dopamine transporter.
The target is the same in experiment [7]. As to the kind of experiment: Binding constant for [3H]dopamine uptake was calculated from the Cheng-Prusoff relationship.
Experiment [8] has the same target. As to the kind of experiment: Binding constant for the ability to displace [3H]mazindol to dopamine receptor was calculated from the Cheng-Prusoff relationship.

Values joined by “and” are separate entries in the source; they are usually repeats but may differ in a detail not shown here. Equal values may be shown once.

T1 sequence (Q01959 whole entry): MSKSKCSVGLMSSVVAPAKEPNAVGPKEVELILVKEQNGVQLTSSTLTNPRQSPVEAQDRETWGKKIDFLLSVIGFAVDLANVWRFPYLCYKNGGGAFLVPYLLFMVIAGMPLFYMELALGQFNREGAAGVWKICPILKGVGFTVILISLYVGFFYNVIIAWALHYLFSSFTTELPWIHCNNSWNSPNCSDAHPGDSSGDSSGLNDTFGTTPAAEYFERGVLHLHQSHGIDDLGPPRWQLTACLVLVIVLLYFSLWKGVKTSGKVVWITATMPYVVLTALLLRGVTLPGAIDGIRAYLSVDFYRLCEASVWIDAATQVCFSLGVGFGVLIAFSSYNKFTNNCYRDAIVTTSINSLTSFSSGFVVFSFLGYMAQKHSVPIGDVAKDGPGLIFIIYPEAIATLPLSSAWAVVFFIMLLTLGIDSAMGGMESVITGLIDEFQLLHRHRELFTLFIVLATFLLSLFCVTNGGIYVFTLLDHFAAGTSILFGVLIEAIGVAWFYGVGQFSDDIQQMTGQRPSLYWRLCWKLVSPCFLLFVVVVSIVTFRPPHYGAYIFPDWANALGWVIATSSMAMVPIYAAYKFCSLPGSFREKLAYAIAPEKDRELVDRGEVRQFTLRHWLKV

`CN1C2CCC1[C@H](/C=C/Cl)[C@@H](c1ccc(Cl)cc1)C2` (stereo partly specified): the IC50 was 19 nM and 16 nM in experiment [1]; 24 nM and 18 nM in experiment [2].
On to `CC[C@@H]1C2CCC(C[C@@H]1c1ccc(Cl)cc1)N2C` (stereo partly specified), for which the IC50 amounted to 2.6 nM in experiment [1] and 3.5 nM in experiment [2].
For the molecule `CN1C2CCC1[C@@H]([C@@H](O)C(F)(F)F)[C@@H](c1ccc(Cl)cc1)C2` (stereo partly specified), the IC50 in experiment [1] is 10.5 nM; in experiment [2], 9.2 nM.
As for `C=C[C@@H]1C2CCC(C[C@@H]1c1ccc(Cl)cc1)N2C` (stereo partly specified), the IC50 stood at 2.8 nM in experiment [1] and 1.2 nM in experiment [3].
As to `CN1C2CCC1[C@@H](C(=O)C(F)(F)F)[C@@H](c1ccc(Cl)cc1)C2` (stereo partly specified), the IC50 result in experiment [4] and in experiment [5] was “not isolated” in each case.
Take `CN1C2CCC1[C@H](C(=O)C(F)(F)F)[C@@H](c1ccc(Cl)cc1)C2` (stereo partly specified): the results for the IC50 in experiment [1] and in experiment [2] were 377 nM and 1190 nM, respectively.
Regarding `CN1C2CCC1[C@@H]([C@H](O)C(F)(F)F)[C@@H](c1ccc(Cl)cc1)C2` (stereo partly specified), the IC50 result in experiment [4] and in experiment [5] was “not isolated” throughout.
For the molecule `COC(=O)C1C2CC[C@H](C[C@@H]1c1ccc(Cl)cc1)N2C` (stereo partly specified), the IC50 in experiment [6] came to 1.7 nM; in experiment [1], 3.2 nM.
Consider `CN1C2CCC1[C@@H](/C=C/Cl)[C@@H](c1ccc(Cl)cc1)C2` (stereo in doubt; 4), for which the results for the IC50 in experiment [1] and in experiment [2] were 1.3 nM and 0.73 nM, respectively.
In the case of `CN1C2CCC1[C@@H](/C=C/Cl)[C@@H](c1ccc(Cl)cc1)C2` (stereo in doubt; 5), the IC50 stood at 0.99 nM in experiment [1] and 0.36 nM in experiment [2]. In addition, the Ki is 0.88 nM in experiment [7] and 0.22 nM in experiment [8].
For `CN1C2CCC1[C@H](C(O)C(F)(F)F)[C@@H](c1ccc(Cl)cc1)C2` (stereo in doubt; 12), the IC50 in experiment [1] was determined as 125 nM; in experiment [2], 166 nM.
On to `CN1C2CCC1[C@H](C(O)C(F)(F)F)[C@@H](c1ccc(Cl)cc1)C2` (stereo in doubt; 13), for which the half-inhibitory concentration (IC50) in experiment [1] came out at 525 nM; in experiment [2], 1100 nM.
